Assay results as given in PMC8294803, “A Roadmap to the Structure-Related Metabolism Pathways of Per- and Polyfluoroalkyl Substances in the Early Life Stages of Zebrafish (Danio rerio)” (Environmental Health Perspectives, 2021).
“And” between values parts separate entries of the source, which are not always exact repeats. Equal values may be shown once.

Experiments:
zebrafish larvae [1] = assay: Identification of taurine conjugates by the DIPIC-Frag method in zebrafish larvae; format: in vivo, Danio rerio; conditions: among 74 PFAS
Excerpt: To identify the taurine conjugates in zebrafish larvae exposed to PFAS, we used the data-independent precursor isolation and characteristic fragment (DIPIC-Frag) method developed in previous studies ([Peng et al. 2015], [2016]) to enhance the coverage inspired by the detection of the characteristic fragment from taurine conjugates ( [taurine-H]^− , m/z 124.0063). Then, the taurine fragment peak was extracted from each AIF window across all 243 raw MS data. Once the taurine fragment peak was detected, corresponding precursor ions were identified from the same window and sample by aligning their chromatographic peaks. The precursor ions were further confirmed by their co-occurrences with the taurine fragment across samples. Once precursor ions were identified, the compound formulas and structures were predicted by interpreting high-resolution MS and MS/MS spectra, as mentioned above.

zebrafish embryos = conditions: for pericardial oedemata, Mean / spinal curvature, Mean / tail dysplasia, Mean: 5μM through 120 hpf, malformation rate; for Mortality (%): 5 µM, exposure through 120 hpf
zebrafish larvae [2] = assay: Bioconcentration factors (BCF) of PFAS in zebrafish larvae; conditions: zebrafish larvae; for BCF 0.5µM: 0.5 µM exposure; for BCF 0.5µM / BCF 5µM: 120 hpf, three replicates; for BCF 5µM: 5 µM exposure
Outline: (§1)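 Zebrafish embryos collected within 1 h post-spawning were exposed individually to each PFAS in facility water with DMSO controls, medium renewed every 24 h from 24 to 96 hpf. Live hatched larvae collected at 120 hpf, wet-weighed, extracted with dichloromethane/methanol and analysed by UHPLC–high-resolution MS against mass-labelled standards.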

zebrafish larvae [3] = assay: Nontargeted analysis of PFAS metabolites in zebrafish larvae (high-resolution MS)
Method: Zebrafish embryos were collected immediately after spawning, within 1 h, and subsequently transferred to 24-well plates with 1mL of facility water ( 0.036g sea salt, 0.15g sodium bicarbonate in 2L of reverse osmosis water). […] Three well replicates on the same plate were conducted for each concentration of individual chemical. […] Seven batches of experiments were performed to test all 74 PFAS. DMSO controls were incorporated in each batch of exposure experiments. Three replicates were performed for each treatment group, and 20 embryos were used for each replicate. […] For daily replenishment, 2.5mL of old exposure medium were replaced with freshly prepared medium every 24 h from 24 to 96 h post fertilization (hpf). Hatched or dead embryo numbers were recorded every 24 hpf, after which dead embryos were discarded from the growth media. Dead embryos or unhatched embryos were not used for PFAS measurement because the metabolism of PFAS might have been impacted. Zebrafish larvae collection occurred at 120 hpf. First, the larvae were anesthetized by cooling the plate in ice water (0–4°C) for ∼20 min . Then 8–15 larvae in each well were transferred into 1.5-mL tubes. Exposure media was carefully removed, and then the larvae were weighed (wet weight) after blotting excess water with a paper towel. […] Samples were stored at −80 °C until further chemical analysis was performed. Survival rate and hatching rate were calculated by summarizing all the documented data from the whole treatment duration. […] The exposure experiment of PFOSA was repeated using the same procedure as described above.
Each sample was spiked with 2μL of 0.2μg/mL mass-labeled PFAS mixture. Following this, 500μL of dichloromethane/methanol (2:1, vol/vol) was added to each sample for PFAS extraction. Larvae were then homogenized via ultrasonic probe, followed by 30 min of shaking and 30 min of sonication. Each sample was centrifuged at 14,000×g for 5 min, after which the supernatant was transferred to new tubes. Extraction was repeated once and the two supernatants were combined, evaporated under nitrogen flow, and reconstituted in 200μL of methanol for MS analysis.
Three microliters of each zebrafish extract was applied to a C18 column ( 1.5μm; 2.1mm×50mm; Thermo Scientific) and analyzed using a Vanquish ultra-HPLC system (Thermo Fisher Scientific) coupled to a Q Exactive high-resolution mass spectrometer (Thermo Fisher Scientific). The sampler and column compartments were maintained at 4°C and 40°C, respectively. The aqueous mobile phase solution (A) consisted of water, whereas the organic mobile phase solution (B) consisted of acetonitrile. […] MS data was acquired in full scan mode (100–1000 m/z, 70,000 mass resolution, 3×10^6 maximum ions collected per 100 ms), and tandem MS (MS/MS) data was recorded by all-ion fragmentation (AIF) mode. Negative and positive ion modes were carried out simultaneously at a 10-min method duration. […] An overview of the analyses conducted on the various PFAS is available in Table S2.
Nontargeted data analysis was accomplished with R scripts that are available on Github (https://github.com/huiUofT/PFASmetabolite). […] The peak features were matched across samples with a mass tolerance of 2.5 ppm and a RT window of 20 s, after RT adjustment. The ratio of abundances of each feature in treatment groups relative to the control group (DMSO) was calculated. The p -values of the difference between two groups were determined by student’s t -tests.

[4] = test system: liver fatty acid binding protein (L-FABP); set-up: method as in Yang et al. 2020; conditions: ref Yang et al. 2020, cited from earlier work; for Kd: read-out: Kd (μM), L-FABP binding affinity
soil microcosms = test system: soil microcosms; set-up: method as in Mejia-Avendaño et al. 2016; conditions: ref Mejia-Avendaño et al. 2016; cited from earlier work
[5] = Bioconcentration factors (BCF) of PFAS in zebrafish larvae; conditions: zebrafish (Danio rerio), whole larvae, other: immersion in exposure medium, 5 µM
Outline: as §1

Row | Compound | Taurine conjugates detected (zebrafish larvae [1]) | pericardial oedemata, Mean (zebrafish embryos) | spinal curvature, Mean (zebrafish embryos) | tail dysplasia, Mean (zebrafish embryos) | Mortality (%) (zebrafish embryos) | BCF at 0.5μM compared with 5μM (zebrafish larvae [2]) | BCF 0.5µM (zebrafish larvae [2]) | BCF 5µM (zebrafish larvae [2]) | Metabolite peak features detected (zebrafish larvae [3]; zebrafish larvae exposed to 5μM) | L-FABP ligand [4] | Half-life, biodegradation by soil microcosms (soil microcosms) | concentration at 120 hpf [5] | Peak intensity of PFCA in zebrafish embryos directly exposed to the PFCA (zebrafish larvae [3]; 5μM through 120 hpf, single replicates, listed as PFBA) | Kd [4] | Profile of metabolites (%): Alcohol (zebrafish larvae [3]; zebrafish larvae, Figure 5B) | Peak intensity: Alcohol (parent FTOH) (zebrafish larvae [3]; zebrafish larvae, single replicates, Figure 5A)
1 | 3-(Perfluoro-2-butyl)propane-1,2-diol [compound 30] | taurine conjugates were detected | 2.22% | 2.22% | 0.00% | 0% | – | – | – | – | – | – | – | – | – | – | –
2 | C[N+](C)(C)CCCNS(=O)(=O)C(F)(F)C(F)(F)C(F)(F)C(F)(F)C(F)(F)C(F)(F)C(F)(F)C(F)(F)F [compound 5, Perfluorooctanesulfonamido ammonium iodide] | – | 0.00% | 1.11% | 0.00% | 2.2% | comparable or even higher BCFs at 5μM | 48.14 L/kg | 56 ± 16 L/kg | 74 | not identified as L-FABP ligands | 142 days | – | – | – | – | –
3 | O=C(O)C(F)(F)C(F)(F)C(F)(F)F [compound 12, Perfluorobutanoic acid] | – | 1.11% | 0.00% | 0.00% | 4.4% | – | 2.559 L/kg | 1.0 ± 0.28 L/kg | – | – | – | 3.1 ± 0.88 µM | 3728507 and 3082077 and 5690847 | – | – | –
4 | O=C(O)CCC(F)(F)C(F)(F)C(F)(F)C(F)(F)C(F)(F)F [compound 14, 2H,2H,3H,3H-Perfluorooctanoic acid] | taurine conjugates were detected | 0.00% | 0.00% | 1.11% | 1.1% | comparable or even higher BCFs at 5μM | 6.7299 L/kg | 8.7 ± 2.1 L/kg | – | – | – | – | – | 158 µM | – | –
5 | COC(=O)CCC(F)(F)C(F)(F)C(F)(F)C(F)(F)F [compound 39, Methyl 2H,2H,3H,3H-perfluoroheptanoate] | taurine conjugates were detected | 0.00% | 0.00% | 0.00% | 1.1% | – | – | – | – | – | – | – | – | – | – | –
6 | OCCCCC(F)(F)C(F)(F)C(F)(F)C(F)(F)F [compound 40, 4:4 Fluorotelomer alcohol] | taurine conjugates were detected | 0.00% | 0.00% | 0.00% | 0% | – | – | – | – | – | – | – | – | – | 0.00% | 0
7 | OCCCC(F)(F)C(F)(F)C(F)(F)F [compound 49, 3-(Perfluoropropyl)propanol] | taurine conjugates were detected | 0.00% | 0.00% | 0.00% | 1.1% | – | – | – | – | – | – | – | – | – | – | –
8 | O=C(O)C=CC(F)(C(F)(F)F)C(F)(F)F [compound 56, 3-(Perfluoroisopropyl)-2-propenoic acid] | taurine conjugates were detected | 0.00% | 0.00% | 0.00% | 4.4% | – | 2.65 L/kg | 1.6 ± 0.21 L/kg | – | – | – | – | – | – | – | –
9 | O=C(O)C(F)(F)C(F)(F)C(F)(F)C(F)(F)C(F)(F)C(F)(F)C(F)(F)F [compound 74, Perfluorooctanoic acid] | – | 0.00% | 0.00% | 0.00% | 4.4% | – | 31.5419 L/kg | 17 ± 3.2 L/kg | – | – | – | 76 ± 1.6 µM | – | 18.7 µM | – | –
